Source: article PMC4469915 (Molecules and Cells, 2015)

Key:
apoA-I = apoA-I (Homo sapiens, UniProt P02647); test: DMPC multilamellar liposome clearance, absorbance at […] nm; format: binding; details: lipid-free protein; liposomes; protein:DMPC 2:1 mol/mol as printed; 24.5°C
apoA4 = target: T1, apoA4 (Homo sapiens, UniProt P06727); test: as above; format: binding; details: lipid-free protein; liposomes; protein:DMPC 2:1 mol/mol as printed; 24.5°C
T1 sequence (P06727 21-396): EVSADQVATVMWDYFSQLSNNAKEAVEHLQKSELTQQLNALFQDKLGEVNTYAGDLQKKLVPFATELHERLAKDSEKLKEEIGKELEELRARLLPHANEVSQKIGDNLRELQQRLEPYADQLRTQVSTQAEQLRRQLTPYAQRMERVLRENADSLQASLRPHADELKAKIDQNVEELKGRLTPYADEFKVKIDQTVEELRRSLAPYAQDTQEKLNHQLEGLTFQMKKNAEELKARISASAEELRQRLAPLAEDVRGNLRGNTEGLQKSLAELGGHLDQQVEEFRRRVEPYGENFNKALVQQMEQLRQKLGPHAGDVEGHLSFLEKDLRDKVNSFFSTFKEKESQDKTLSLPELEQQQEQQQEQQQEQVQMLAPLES

Chain of apoA-I (P02647 25-267): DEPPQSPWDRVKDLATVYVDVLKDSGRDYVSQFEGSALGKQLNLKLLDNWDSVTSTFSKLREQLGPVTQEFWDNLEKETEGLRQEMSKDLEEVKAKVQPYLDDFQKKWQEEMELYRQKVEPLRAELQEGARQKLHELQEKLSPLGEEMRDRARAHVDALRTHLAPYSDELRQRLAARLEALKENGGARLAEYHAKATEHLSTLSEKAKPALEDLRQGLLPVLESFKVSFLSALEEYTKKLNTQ

- T1/2 (apoA-I): 11 ± 1 min
- T1/2 (apoA4): 62 ± 10 min
Compound: CCCCCCCCCCCCCC(=O)OC[C@H](COP(=O)([O-])OCC[N+](C)(C)C)OC(=O)CCCCCCCCCCCCC [DMPC]
